Experiments:
[1] = test system: Per2-luciferase knock-in (Per2-Luc-KI) fibroblast cultures; assay: Real-time bioluminescence monitoring of DEX-synchronized Per2-Luc-KI fibroblast cultures; format: cell-based, mouse; conditions: 20 μM, DEX-synchronized Per2-Luc-KI fibroblasts
Description: For real-time bioluminescence monitoring, we used mouse embryonic fibroblast (MEF) cultures established from Per2-LUC-KI mice. […] The medium was then replaced with a recording medium containing 0.1 mM D-luciferin (Promega) along with vehicle (0.1% DMSO), KS15 (20 μM), 5d (20 μM), or 2d (20 μM). Light emission for 2 min at intervals of 20 min was integrated using a dish-type wheeled luminometer (Kronos-Dio, ATTO Cooperation, Tokyo, Japan). Background-subtracted bioluminescence profiles were analyzed using Cosinor analysis software (available at http://www.circadian.org, last accessed on 19 May 2021).
(§1) The EC50 values for luciferase reporter assay were calculated based on a logistic four-parametric equation using the mean values of intrinsic activation (SigmaPlot 10.0; Systat Software Inc., San Jose, CA, USA). The IC50 and t1/2 values for the cytochrome P450 inhibition assay and metabolic stability test were calculated by WinNonlin software (Pharsight, Mountain View, CA, USA). Pharmacokinetic parameters were calculated using non-compartmental analysis (WinNonlin v.8.3; Pharsight, Mountain View, CA, USA). Kinetic and equilibrium constants for SPR analysis were obtained by global fitting of the Langmuir 1:1 bimolecular kinetic model (ProteOn Manager v.3.1.0.6, Bio-Rad, Hercules, CA, USA). Circadian molecular clock-enhancing activities were expressed as means ± SE and statistically evaluated by Student’s t-test or one-way analysis of variance (ANOVA) followed by Newman–Keuls multiple comparison test for post hoc comparisons. The significance level for the analyses was set at p < 0.05.

E-box-LUC reporter = assay: E-box-LUC luciferase reporter assay, dose-response in stably transfected NIH3T3 cells; format: cell-based; conditions: Mus musculus, E-box-LUC reporter activity, NIH3T3, 36 h; for Emax: maximum response as a percentage of the vehicle-treated group, read-out: Max (%)
Description: (§2) Materials for cell culture were purchased from Thermo Fisher Scientific, unless otherwise stated. NIH3T3 and HEK293T cells were maintained in Dulbecco’s modified Eagle medium supplemented with 5% fetal bovine serum and 100 U/mL penicillin/streptomycin in a humidified atmosphere containing 5% CO2 at 37 °C. Plasmids and transfection experiments for luciferase reporter assay were described in our previous report. For dose-response experiments, mouse NIH3T3 cells stably transfected with an E-box-LUC reporter were plated in 12-well culture plates, treated as indicated for 36 h, and subjected to luciferase assay. For transient transfections, we seeded HEK293T cells in 12-well culture plates and used Lipofectamine® 3000 reagent to transfect cells with the E-box-LUC reporter and the indicated clock gene expression plasmids together with a thymidine kinase promoter-driven Renilla luciferase (pRL-TK) plasmids. We kept total DNA levels constant by adding an empty pcDNA3.1 plasmid. After 24 h of transfection, cells were treated with vehicle (0.1% DMSO) or chemical compounds at various concentrations for 36 h. Cell extracts were prepared by incubating cells in 0.3 mL reporter lysis buffer for 15 min at room temperature. Luciferase activity was measured with a commercial dual luciferase assay kit (Promega, Madison, WI, USA).
as §1

hCRY1 = molecular target: T1, hCRY1 (Homo sapiens, UniProt Q16526); assay: Suppressive action of CRY1 on CLOCK:BMAL1-activated E-box-LUC reporter activity in transiently transfected HEK293T cells; format: cell-based; parameters: expressed in transfected cells; host or cells: HEK293T; conditions: co-expression of human CRY1, 36 h treatment
T1 sequence (Q16526 1-586): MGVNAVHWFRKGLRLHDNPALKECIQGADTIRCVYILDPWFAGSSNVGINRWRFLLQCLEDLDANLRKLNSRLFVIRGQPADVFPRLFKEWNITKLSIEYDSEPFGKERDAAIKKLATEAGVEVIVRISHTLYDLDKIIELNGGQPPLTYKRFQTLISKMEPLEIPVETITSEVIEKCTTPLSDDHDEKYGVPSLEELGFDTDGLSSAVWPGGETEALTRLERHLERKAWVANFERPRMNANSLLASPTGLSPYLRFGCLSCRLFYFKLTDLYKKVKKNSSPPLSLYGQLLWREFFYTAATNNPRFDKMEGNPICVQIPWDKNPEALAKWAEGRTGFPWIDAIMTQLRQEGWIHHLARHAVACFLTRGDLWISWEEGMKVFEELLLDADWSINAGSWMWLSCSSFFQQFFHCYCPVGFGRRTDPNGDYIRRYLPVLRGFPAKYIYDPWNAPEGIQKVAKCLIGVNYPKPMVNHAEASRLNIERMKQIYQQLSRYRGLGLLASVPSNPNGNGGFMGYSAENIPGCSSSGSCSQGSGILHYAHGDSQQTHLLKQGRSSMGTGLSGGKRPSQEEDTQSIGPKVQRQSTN
Description: as §2

[2] = Metabolic stability test in pooled human liver microsomes; format: in vitro ADME; conditions: pooled HLMs 1.0 mg/mL, 1 μM compound, NADPH generating system, read-out: t1/2 in HLMs
Description: The metabolic stability of KS15, 5d, or 2d was evaluated using pooled HLMs. Pooled HLMs (1.0 mg/mL), a potassium phosphate buffer, and a test compound (1 μM) were pre-incubated (37 °C, 5 min). To initiate the reaction, the NADPH generating system was added to the samples and incubated for specific time points (0, 5, 15, 20, 45, and 60 min). Then, aliquots were taken and reactions terminated in acetonitrile containing IS. After centrifugation, supernatants were analyzed using LC-MS/MS to determine KS15, 5d, or 2d concentrations in samples. Analyte separation was performed using a Kinetex C18 column (100 mm × 2.1 mm, 2.6 μm ID., Phenomenex). The mobile phase solvent A was 0.1% formic acid in water, and solvent B was 0.1% formic acid in acetonitrile. Gradient separation was performed as follows: 0–3 min (10–90% B) and 3.1–8 min (10% B). The flow rate was 0.2 mL/min, and the run time was 8 min for each sample. Electrospray ionization was conducted in positive ion mode at 4 kV. […] Quantitation was performed in the SRM of the [M+H]^+ ion and the related product ion for each test compound and IS: KS-15 (m/z 420 > 169, CE 30 eV), 5d (m/z 359 > 206, CE 20 eV), 2d (m/z 345 > 192, CE 22 eV), and IS (m/z 295 > 100, CE 17 eV).
as §1, with “Kinetic and equilibrium constants for SPR analysis were obtained by global fitting of the Langmuir 1:1 bimolecular kinetic model (ProteOn Manager v.3.1.0.6, Bio-Rad, Hercules, CA, USA).” left out, “The significance level for the analyses was set at p < 0.05.” left out

| Structure (SMILES) | Amplitude of cyclic Per2 expression [1] | Robustness of the rhythm (Cosinor regression) [1] | EC50 (E-box-LUC reporter) [µM] | Emax (E-box-LUC reporter) [%] | Effect on CRY1-suppressed CLOCK:BMAL1-activated E-box-mediated transcription (hCRY1) | half-life at 1 μM [2] [min] |
| --- | --- | --- | --- | --- | --- | --- |
| CC(=NOCc1ccc([N+](=O)[O-])cc1)c1cccc(OCC(=O)O)c1 [Compound 2d, 2-(3-(1-(((4-nitrobenzyl)oxy)imino)ethyl)phenoxy)acetic acid] | significantly augmented the amplitude | barely affect the robustness | 10.2 | 161 | dose-dependently restored E-box-mediated transcriptional activities | > 60 |
| COC(=O)COc1cccc(C(C)=NOCc2ccc([N+](=O)[O-])cc2)c1 [Compound 5d, Methyl 2-(3-(1-(((4-nitrobenzyl)oxy)imino)ethyl)phenoxy)acetate] | significantly augmented the amplitude | barely affect the robustness | 6.44 | 193 | dose-dependently restored E-box-mediated transcriptional activities | 2.4 |
